The values that follow come from patent EP4667482A1, “SALT OF DIPEPTIDE COMPOUND, PREPARATION METHOD THEREFOR, AND USE THEREOF” (Zhejiang Huahai Pharmaceutical Co., Ltd., priority 2023, dated 2024).

Common to all, as to assay type: physicochemical
A short description of series [1]: Stability at room temperature (10 days).
Series [2] can be described thus: Moisture adsorption / hygroscopicity (DVS). As to conditions: for Hygroscopicity: result in words.
Series [3] is described as follows: Solid-state stability of Form III (mechanical milling; storage at 60 °C sealed).

Structures can show the parent of a compound that is named as a salt.

Turning to `CCCCCCOC(=O)NC(=N)c1ccc(CNC(=O)[C@@H]2CCCN2C(=O)[C@@H](CC(C)C)NCC(=O)OCC)cc1` [Form A of the monohydrochloride], the “Stability at room temperature (10 days)” value in series [1] was “White powder, crystalline form remains unchanged (10 days)”. In series [2], the “Moisture adsorption content (wt%)” value is on record as 0.5 wt% and the Hygroscopicity result is recorded as “Slightly hygroscopic”.
With `CCCCCCOC(=O)NC(=N)c1ccc(CNC(=O)[C@@H]2CCCN2C(=O)[C@@H](CC(C)C)NCC(=O)OCC)cc1` [Form B of the monohydrochloride], the “Stability at room temperature (10 days)” value in series [1] is on record as “White powder, crystalline form remains unchanged (10 days)”. Also, in series [2], the “Moisture adsorption content (wt%)” value is given as 3.0 wt% and the Hygroscopicity entry is recorded as “Hygroscopic”.
`CCCCCCOC(=O)NC(=N)c1ccc(CNC(=O)[C@@H]2CCCN2C(=O)[C@@H](CC(C)C)NCC(=O)OCC)cc1` [Form III]: the “water absorption (DVS)” value in series [2] (80% RH) amounted to 28.8%; in series [2] (90% humidity), 50.0%. Moreover, the “crystalline form after storage” value in series [3] (60 °C/sealed condition for 7 days) is “converted to Form I”. Moreover, the purity worked out at 89.35% in series [3] (after storage at 60 °C/sealed condition for 7 days) and 95.81% in series [3] (before storage at 60 °C/sealed condition). Further, the “crystalline form after mechanical milling” value in series [3] (mechanical milling for 2 minutes) is listed as “converted to Form I”.
